According to patent US12390446B2 (RESEARCH TRIANGLE INSTITUTE, priority 2017, dated 2025):
Values after ≈ are worked out from the molar mass of the structure shown. Values joined by “and” are separate entries in the source; they are usually repeats but may differ in a detail not shown here. Equal values may be shown once. “Also recorded” adds a separate entry of the source. Read-outs that look alike come from different tables or passages of the source.

Columns and labels:
[1] = target: T1, NPFF1 receptor (human NPFFR1 in CHO-RD-HGA16 cells) (Homo sapiens, UniProt Q9GZQ6); test: Calcium mobilization functional Ke assay, NPFF1; assay type: cell-based; conditions: for Kb: read-out: NPFF1 Ke; for preference / selectivity for NPFF1 over NPFF2: from calcium mobilization Ke values
T1 construct: expressed in transfected cells

[2] = target: T2, NPFF2 receptor (CHO-hNPFFR2 membranes) (Homo sapiens, UniProt Q9Y5X5); test: Radioligand binding assay, [125I]NPFF, NPFF2
T2 construct: purchased PerkinElmer RBHNF2M400UA; host or cells: CHO cell membranes
Method: (§1) Radioligand binding assay. Binding assays were performed according to PerkinElmer's protocol in a final volume of 500 μL of assay buffer (50 mM Tris-HCl, 1 mM MgCl2, 60 mM NaCl, 0.5% BSA, pH 7.4). […] After incubating at 27° C. for 120 minutes, the binding assay was terminated by vacuum filtration onto Unifilter GF/C glass-fiber filters (pre-soaked in 0.1% PEI) using a Brandel (Gaithersburg, MD, USA) 96-well harvester, followed by three washes with ice-cold wash buffer (50 mM Tris-HCl, 0.1% BSA, pH 7.4). The filter plate was dried for 1 hr at 55° C. Microscint 20 (50 μL) was added to each well and filter-bound radioactivity was counted on a Packard TopCount NXT microplate scintillation and luminescence counter.
(§2) Data were fit to a one site (fit Ki) competitive binding model, log EC50=log(10^log Ki*(1+RadioligandNM/HotKdNM)), to generate Ki values for the test compounds using GraphPad Prism (GraphPad Software, Inc., San Diego CA).

[3] = target: NPFF1 receptor (human NPFFR1-CHO cells) (Homo sapiens, UniProt Q9GZQ6); test: Lance cAMP functional Ke assay, NPFF1; assay type: cell-based
Method: (§3) Kinetic solubility and bidirectional MDCK-MDR1 permeability assays of the compounds were performed by Paraza Pharma Inc. (Montreal, Canada) according to their standard protocols.
(§4) cAMP assay. Stable human NPFFR1-CHO (ES-491-C) and NPFFR2-CHO (ES-490-C) cell lines were purchased from PerkinElmer and used with the Lance@ Ultra kit (TRF0262) to detect cAMP accumulation in low volume 96-well plates. Stimulation buffer containing 1× HBSS, 5 mM HEPES, 0.1% BSA stabilizer, and 0.5 mM IBMX was prepared and titrated to 7.4 at room temperature.
(§5) A single concentration of each test compound was prepared at 4× the desired final concentration in 2% DMSO/stimulation buffer and 5 μL was added to the assay plate.
(§6) Cells were lifted with versene and spun at 270 g for 10 minutes. The cell pellet was resuspended in stimulation buffer and 4,000 cells (10 μL) were added to each well. After incubating for 30 min at RT, Eu-cAMP tracer and uLIGHT-anti-cAMP working solutions were added per the manufacturer's instructions. After incubation at RT for 1 hour, the TR-FRET signal (ex 337 nm) was read on a CLARIOstar multimode plate reader (BMG Biotech, Cary NC).
(§7) Fluorescence values at 665 nm were plotted against the log of compound concentration using a nonlinear regression analysis to generate EC50 values (GraphPad Prism, GraphPad Software, Inc., San Diego CA). Ke values were calculated using the same equation as described in the calcium mobilization methods.

[4] = target: T3, NPFF2 receptor (human NPFFR2 in CHO-RD-HGA16 cells) (Homo sapiens, UniProt Q9Y5X5); test: Calcium mobilization functional Ke assay, NPFF2; assay type: cell-based
T3 construct: expressed in transfected cells

Sprague-Dawley rats = test: Fentanyl-induced hyperalgesia model in rats (von Frey paw withdrawal threshold); assay type: in vivo, rat; conditions: day 1 after fentanyl, i.p., cumulative doses 3.2-32 mg/kg
Kinetic solubility assay = assay type: physicochemical
Method: as §3
Kinetic solubility assay. A 10 μL of test compound stock solution (10 mM DMSO) was combined with 490 μL of PBS (potassium phosphate monobasic 1 mM, sodium phosphate dibasic 3 mM and sodium chloride 155 mM buffer). The solution was agitated on a VX-2500 multi-tube vortexer (VWR) for 2 hours at room temperature. Following agitation, the sample was filtrated on a glass-fiber filter (1 μm) and the eluate was diluted 200-fold with a mixture of acetonitrile: water (1:1). On each experimental occasion, nicardipine and imipramine were assessed as reference compounds for low and high solubility, respectively. All samples were assessed in triplicate and analyzed by LC-MS/MS using electrospray ionization against standards prepared in the same matrix.

[5] = target: NPFF2 receptor (human NPFFR2-CHO cells) (Homo sapiens, UniProt Q9Y5X5); test: Lance cAMP functional Ke assay, NPFF2; assay type: cell-based
Method: as §3, §4, §5, §6, §7

[6] = target: T4, NPFF1 receptor (CHO-hNPFFR1 membranes) (Homo sapiens, UniProt Q9GZQ6); test: Radioligand binding assay, [125I]NPFF, NPFF1
T4 construct: purchased PerkinElmer RBHNF1M400UA; host or cells: CHO cell membranes
Method: as §1, §2

MDCK-MDR1 cells = test: Bidirectional MDCK-MDR1 permeability assay; assay type: in vitro ADME; conditions: for BBB permeability / rate B to A / rate apical (A) to basolateral (B): MDCK-MDR1; for Pgp substrate: from efflux ratio
Method: as §3
(§8) Bidirectional MDCK-MDR1 permeability assay. MDCK-mdr1 cells at passage 5 were seeded onto permeable polycarbonate supports in 12-well Costar@ Transwell® plates and allowed to grow and differentiate for 3 days. On day 3, culture medium (DMEM supplemented with 10% FBS) was removed from both sides of the transwell inserts and cells were rinsed with warm HBSS. After the rinse step, the chambers were filled with warm transport buffer (HBSS containing 10 mM HEPES, 0.25% BSA, pH 7.4) and the plates were incubated at 37° C. for 30 min prior to TEER (Trans Epithelial Electric Resistance) measurements.
(§9) The buffer in the donor chamber (apical side for A-to-B assay, basolateral side for B-to-A assay) was removed and replaced with the working solution (10 μM test article in transport buffer). The plates were then placed at 37° C. under light agitation. At designated time points (30, 60 and 90 min), an aliquot of transport buffer from the receiver chamber was removed and replenished with fresh transport buffer. Samples were quenched with ice-cold ACN containing internal standard and then centrifuged to pellet protein. Resulting supernatants are further diluted with 50/50 ACN/H2O(H2O only for Atenolol) and submitted for LC-MS/MS analysis. Reported apparent permeability (Papp) values were calculated from single determination. Atenolol and propranolol were tested as low and […] permeability references.
(§10) The apparent permeability (Papp, measured in cm/s) of a compound is determined according to the following formula:
(§11) [formula] • dQ/dt is the net rate of appearance in the receiver compartment • A is the area of the Transwell measured in cm^2 (1.12 cm^2) • Ci is the initial concentration of compound added to the donor chamber • 60 is the conversion factor for minutes to seconds. In Vivo Pharmacology.

P-gp (MDR1) = test: Bidirectional MDCK-MDR1 permeability assay; assay type: in vitro ADME; conditions: dog, MDCK-MDR1, pH 7.4; read-out: efflux ratio (PB→A/PA→B)
Method: as §3, §8, §9, §10, §11

[7] = Table 5, [125I]NPFF displacement
[8] = Table 6, MDCK-MDR1, 10 μM test article

NPFF2 receptor (human NPFFR2-CHO cells), sequence (Q9Y5X5 whole entry): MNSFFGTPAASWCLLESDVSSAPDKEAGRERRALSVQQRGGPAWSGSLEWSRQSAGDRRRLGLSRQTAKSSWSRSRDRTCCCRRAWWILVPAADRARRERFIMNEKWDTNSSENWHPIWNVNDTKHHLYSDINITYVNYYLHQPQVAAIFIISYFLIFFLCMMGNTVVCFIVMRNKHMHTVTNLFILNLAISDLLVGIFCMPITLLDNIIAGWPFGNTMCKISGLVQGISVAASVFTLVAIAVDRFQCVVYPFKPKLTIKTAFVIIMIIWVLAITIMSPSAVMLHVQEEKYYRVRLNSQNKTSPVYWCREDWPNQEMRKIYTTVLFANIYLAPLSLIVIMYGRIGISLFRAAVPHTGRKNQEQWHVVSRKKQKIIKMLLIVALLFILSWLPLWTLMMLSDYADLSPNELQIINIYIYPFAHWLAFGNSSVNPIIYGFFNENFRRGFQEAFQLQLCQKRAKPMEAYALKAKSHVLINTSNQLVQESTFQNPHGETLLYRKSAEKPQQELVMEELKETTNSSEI
T3 sequence (Q9Y5X5 whole entry): as above
T1 sequence (Q9GZQ6 whole entry): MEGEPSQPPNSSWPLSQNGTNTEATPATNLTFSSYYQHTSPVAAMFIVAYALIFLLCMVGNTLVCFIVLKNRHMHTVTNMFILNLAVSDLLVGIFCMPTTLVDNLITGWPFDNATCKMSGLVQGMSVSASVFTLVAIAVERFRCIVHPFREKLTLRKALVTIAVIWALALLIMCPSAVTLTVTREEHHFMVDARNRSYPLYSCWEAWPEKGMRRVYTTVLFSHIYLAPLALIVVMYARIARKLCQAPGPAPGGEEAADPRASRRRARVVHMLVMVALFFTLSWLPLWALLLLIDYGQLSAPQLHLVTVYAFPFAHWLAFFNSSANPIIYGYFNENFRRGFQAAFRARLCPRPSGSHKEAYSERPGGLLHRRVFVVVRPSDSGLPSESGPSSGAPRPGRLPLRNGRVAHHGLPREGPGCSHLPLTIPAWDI
NPFF1 receptor (human NPFFR1-CHO cells), sequence (Q9GZQ6 whole entry): as above
T2 sequence (Q9Y5X5 whole entry): as the sequence (Q9Y5X5 whole entry) above
T4 sequence (Q9GZQ6 whole entry): as the sequence (Q9GZQ6 whole entry) above

Compound	Hill slope of NPFF + compound curve, calcium mobilization, NPFF1 cells [1]	Kb ([1]; calcium mobilization assay)	preference / selectivity for NPFF1 over NPFF2 [1] [fold]	Hill slope of NPFF + compound curve, cAMP assay, NPFF1 cells [3]	Hill slope of NPFF + compound curve, calcium mobilization, NPFF2 cells [4]	effect on PWT (Sprague-Dawley rats)	solubility (Kinetic solubility assay)	Hill slope of NPFF + compound curve, cAMP assay, NPFF2 cells [5]	BBB permeability (MDCK-MDR1 cells)	rate B to A (MDCK-MDR1 cells) [cm/s]	rate apical (A) to basolateral (B) (MDCK-MDR1 cells) [cm/s]	Pgp substrate (MDCK-MDR1 cells)	further results
CCCCCNC(=O)[C@@H]1C[C@H](NCc2ccc(OC)cc2)CN1Cc1ccccc1Cl [Compound 16, (2S,4S)-1-[(2-Chlorophenyl)methyl]-4-{[(4-methoxyphenyl)methyl]amino}-N-pentylpyrrolidine-2-carboxamide]	1.7	720 nM	> 4	1.3	1.1	dose-dependently increased PWT	good and moderate	1.3	moderate	6.7e-06	7.6e-06	not Pgp substrates	Kb ([1]; Table 1, mean ± SEM, apparent dissociation constant vs NPFF): 720 ± 10 nM; Ki [2, 7]: 1440 nM; Kb ([3]; Table 5): 340 ± 80 nM; Kb ([4]; Table 1, mean ± SEM, apparent dissociation constant vs NPFF, read-out: NPFF2 Ke): 3090 nM; NPFF2 Ke ([4]; calcium mobilization assay): 3,090 nM; kinetic solubility (Kinetic solubility assay; Mean±% CV, free base): 146.8 ± 6.9 µM (≈ 65.2 µg/mL); solubility (Kinetic solubility assay; Table 6, kinetic solubility in PBS, free base, Mean ± % CV): 146.8 ± 6.9 µM (≈ 65.2 µg/mL); Kb ([5]; Table 5): 2150 nM; Ki [6, 7]: 890 ± 50 nM; Papp A-to-B (MDCK-MDR1 cells; [8]): 7.6 10^−6 cm/sec; Papp B-to-A (MDCK-MDR1 cells; [8]): 6.7 10^−6 cm/sec; Efflux ratio (MDCK-MDR1 cells; Table 6, PB→A/PA→B): 0.9
COc1ccc(CN[C@H]2C[C@@H](C(=O)NCCc3ccc([N+](=O)[O-])cc3)N(Cc3ccccc3Cl)C2)cc1 [Compound 33]	1.4	245 nM and 250 nM	~3	1.4	1.4	dose-dependently increased PWT	moderate	1	moderate	3.6e-06	2.7e-06	not Pgp substrates; also recorded: not a Pgp substrate	type of antagonism in curve-shift assays ([1]; standard incubation, competitive profile with longer incubations): insurmountable antagonism; Ki [2]: 1670 nM; Ki [6]: 610 ± 30 nM; efflux ratio at 90 min, 10 μM (P-gp (MDR1)): 1.3
